Measured values as given in ChEMBL document CHEMBL4138061, “Structure-activity relationships for the synthesis of selective cyclooxygenase 2 inhibitors: an overview (2009-2016)” (Medchemcomm, 2017).
Values belong to the molecule of their own block, whether it stands above or below them.

Experiments:
Ovis aries = species: Ovis aries; experiment: Selectivity index, ratio of IC50 for ovine COX1 to IC50 for ovine COX2
[1] = biological target: T1, Prostaglandin G/H synthase 1 (Ovis aries, UniProt P05979); experiment: Inhibition of ovine COX1 by enzyme chemiluminescence assay
T1 sequence (P05979 whole entry): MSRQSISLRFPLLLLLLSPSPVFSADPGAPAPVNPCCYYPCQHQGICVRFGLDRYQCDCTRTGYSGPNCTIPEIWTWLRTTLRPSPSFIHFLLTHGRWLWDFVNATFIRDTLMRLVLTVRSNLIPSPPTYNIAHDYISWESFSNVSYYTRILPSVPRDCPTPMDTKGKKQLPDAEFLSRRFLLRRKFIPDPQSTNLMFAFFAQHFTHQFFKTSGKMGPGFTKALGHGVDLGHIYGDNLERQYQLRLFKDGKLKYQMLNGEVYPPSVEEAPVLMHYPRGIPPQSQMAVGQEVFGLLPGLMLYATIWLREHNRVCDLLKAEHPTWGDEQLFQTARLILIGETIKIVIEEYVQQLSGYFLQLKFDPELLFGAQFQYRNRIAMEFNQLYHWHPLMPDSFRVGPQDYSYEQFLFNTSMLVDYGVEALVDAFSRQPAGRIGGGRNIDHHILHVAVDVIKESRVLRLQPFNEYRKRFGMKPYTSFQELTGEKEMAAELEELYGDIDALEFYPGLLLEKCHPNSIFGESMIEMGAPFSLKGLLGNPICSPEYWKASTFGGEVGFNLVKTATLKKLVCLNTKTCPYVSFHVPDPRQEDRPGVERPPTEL

[2] = biological target: T2, Prostaglandin G/H synthase 2 (Ovis aries, UniProt P79208); experiment: Inhibition of ovine COX2 by enzyme chemiluminescence assay
T2 sequence (P79208 whole entry): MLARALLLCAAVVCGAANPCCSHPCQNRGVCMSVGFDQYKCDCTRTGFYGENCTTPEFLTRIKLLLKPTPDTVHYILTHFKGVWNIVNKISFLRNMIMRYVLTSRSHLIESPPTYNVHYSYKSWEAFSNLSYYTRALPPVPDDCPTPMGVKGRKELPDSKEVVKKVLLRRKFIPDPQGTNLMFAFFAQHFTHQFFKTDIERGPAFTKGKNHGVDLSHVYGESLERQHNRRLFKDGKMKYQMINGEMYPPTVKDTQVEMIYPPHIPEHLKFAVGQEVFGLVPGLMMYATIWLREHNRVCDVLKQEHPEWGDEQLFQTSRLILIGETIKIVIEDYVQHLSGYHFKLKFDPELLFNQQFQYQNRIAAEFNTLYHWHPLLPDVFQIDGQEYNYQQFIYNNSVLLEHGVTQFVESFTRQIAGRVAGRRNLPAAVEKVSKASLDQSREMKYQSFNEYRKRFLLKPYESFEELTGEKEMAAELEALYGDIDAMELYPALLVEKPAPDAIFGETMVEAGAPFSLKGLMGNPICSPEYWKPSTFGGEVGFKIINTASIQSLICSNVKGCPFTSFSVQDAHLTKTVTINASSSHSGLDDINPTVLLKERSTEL

[3] = biological target: T3, Prostaglandin G/H synthase 2 (Homo sapiens, UniProt P35354); experiment: Inhibition of human recombinant COX2 by enzyme immuno assay
T3 sequence (P35354 whole entry): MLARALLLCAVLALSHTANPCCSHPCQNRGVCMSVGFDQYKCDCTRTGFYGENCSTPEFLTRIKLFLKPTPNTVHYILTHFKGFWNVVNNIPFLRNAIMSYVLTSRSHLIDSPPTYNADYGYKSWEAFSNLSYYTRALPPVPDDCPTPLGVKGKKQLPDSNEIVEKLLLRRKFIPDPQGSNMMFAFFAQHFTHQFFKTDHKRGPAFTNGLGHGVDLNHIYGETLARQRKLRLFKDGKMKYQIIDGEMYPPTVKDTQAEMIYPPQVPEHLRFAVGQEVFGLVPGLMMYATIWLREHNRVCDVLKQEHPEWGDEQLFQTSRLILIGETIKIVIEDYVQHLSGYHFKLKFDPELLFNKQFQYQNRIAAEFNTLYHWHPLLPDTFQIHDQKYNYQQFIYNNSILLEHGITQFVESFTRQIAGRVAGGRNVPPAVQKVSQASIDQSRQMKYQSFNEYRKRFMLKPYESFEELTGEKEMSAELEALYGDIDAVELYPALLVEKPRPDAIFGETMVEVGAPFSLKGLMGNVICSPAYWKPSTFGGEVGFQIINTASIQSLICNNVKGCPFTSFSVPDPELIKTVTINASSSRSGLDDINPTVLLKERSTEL

[4] = Selectivity index, ratio of IC50 for ovine COX1 to IC50 for human COX2
[5] = biological target: T3, Prostaglandin G/H synthase 2; experiment: Inhibition of human COX2 assessed as reduction in PGE2 production incubated for 2 mins using arachidonic acid substrate by enzyme immuno assay
[6] = biological target: T4, Prostaglandin G/H synthase 1 (Homo sapiens, UniProt P23219); experiment: Inhibition of human COX1 assessed as reduction in PGE2 production incubated for 2 mins using arachidonic acid substrate by enzyme immuno assay
T4 sequence (P23219 whole entry): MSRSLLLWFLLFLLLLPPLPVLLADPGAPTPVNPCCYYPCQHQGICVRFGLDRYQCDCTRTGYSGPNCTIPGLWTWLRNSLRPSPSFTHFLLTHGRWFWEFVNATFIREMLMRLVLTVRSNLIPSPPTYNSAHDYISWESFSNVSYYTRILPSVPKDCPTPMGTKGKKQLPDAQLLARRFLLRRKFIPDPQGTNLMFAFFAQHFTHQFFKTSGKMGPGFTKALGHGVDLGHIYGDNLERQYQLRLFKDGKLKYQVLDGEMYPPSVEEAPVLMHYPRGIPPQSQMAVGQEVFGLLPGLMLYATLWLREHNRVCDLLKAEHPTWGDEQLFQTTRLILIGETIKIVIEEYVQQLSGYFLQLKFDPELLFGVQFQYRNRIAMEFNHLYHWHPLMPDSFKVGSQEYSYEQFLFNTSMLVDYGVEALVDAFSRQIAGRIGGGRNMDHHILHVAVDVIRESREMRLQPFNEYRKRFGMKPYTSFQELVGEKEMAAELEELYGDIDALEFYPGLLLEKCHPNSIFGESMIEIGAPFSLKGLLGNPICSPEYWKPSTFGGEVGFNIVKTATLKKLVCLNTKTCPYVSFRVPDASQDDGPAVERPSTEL

Homo sapiens [7] = species: Homo sapiens; experiment: Selectivity index, ratio of IC50 for human COX1 to IC50 for human COX2
[8] = biological target: T3, Prostaglandin G/H synthase 2; experiment: Inhibition of human recombinant COX2 assessed as reduction in […] production incubated for 10 mins using arachidonic acid substrate by enzyme immuno assay
[9] = biological target: T1, Prostaglandin G/H synthase 1; experiment: Inhibition of ovine recombinant COX1 by enzyme immuno assay
[10] = biological target: T1, Prostaglandin G/H synthase 1; experiment: Inhibition of ovine COX1 by fluorescence based assay
[11] = biological target: T3, Prostaglandin G/H synthase 2; experiment: Inhibition of human COX2 by fluorescence based assay
[12] = biological target: T3, Prostaglandin G/H synthase 2; experiment: Inhibition of COX2 (unknown origin)
[13] = biological target: T4, Prostaglandin G/H synthase 1; experiment: Inhibition of COX1 (unknown origin)
Homo sapiens [14] = species: Homo sapiens; experiment: Selectivity index, ratio of IC50 for COX1 (unknown origin) to IC50 for COX2 (unknown origin)
[15] = biological target: T3, Prostaglandin G/H synthase 2; experiment: Inhibition of COX2 in human lympho-monocytes suspension assessed as reduction in LPS-induced PGE2 production pre-incubated for 30 mins before LPS stimulation for 24 hrs by EIA method; format: cell-based
[16] = biological target: T1, Prostaglandin G/H synthase 1; experiment: Inhibition of ovine COX1 using arachidonic acid substrate by TMPD dye based colorimetry
[17] = biological target: T5, Prostaglandin G/H synthase 1 (Ovis aries) (UniProt P05979); experiment: Inhibition of ovine COX1 at 10 ug/ml using arachidonic acid substrate by TMPD dye based colorimetry
T5 sequence (whole entry): T1 sequence (P05979 whole entry)

[18] = biological target: T6, Prostaglandin G/H synthase 2 (Ovis aries) (UniProt P79208); conditions: 10 ug/ml
T6 sequence (whole entry): T2 sequence (P79208 whole entry)
Description: Inhibition of ovine COX2 at 10 ug/ml using arachidonic acid substrate by TMPD dye based colorimetry

Ratio IC50 (Ovis aries): 548
IC50 [1]: 34.5 µM
IC50 [2]: 63 nM
Structure (SMILES): CS(=O)(=O)c1ccc(-c2cc(Cn3ccnc3)c3ccc4c(c3n2)CCCC4)cc1

IC50 [3]: 970 nM
Ratio IC50 [4]: 6.08
Structure (SMILES): CS(=O)(=O)c1ccc(-n2nc(-c3ccc(O)cc3)cc2-c2ccc(C(F)(F)F)cc2)cc1

IC50 [5]: 80 nM
IC50 [6]: 36.1 µM
Ratio IC50 (Homo sapiens [7]): 451
Structure (SMILES): NS(=O)(=O)c1ccc(N2N=C(c3ccc(N4CCOCC4)cc3)CC2c2ccc(F)cc2F)cc1 (stereo not given)

Ratio IC50 [4]: 133
IC50 [8]: 480 nM
Structure (SMILES): CS(=O)(=O)c1ccc(C2NN=C(c3ccc([N+](=O)[O-])cc3)O2)cc1 (stereo not given)

IC50 [3]: 970 nM
Ratio IC50 [4]: 5.77
IC50 [9]: 5.6 µM
Structure (SMILES): CCOc1ccc(-c2cc(-c3ccc(C(F)(F)F)cc3)n(-c3ccc(S(C)(=O)=O)cc3)n2)cc1

IC50 [10]: > 100 µM
IC50 [11]: 20 nM
Ratio IC50 [4]: > 5000
Structure (SMILES): Cc1ccc(-c2c(-c3ccc(S(C)(=O)=O)cc3)c3cccc4ccn2c43)cc1

IC50 [12]: 90 nM
IC50 [13]: 10.5 µM
Ratio IC50 (Homo sapiens [14]): 116
Structure (SMILES): CS(=O)(=O)c1ccc(C2C(c3ccccc3)=NOC23COc2ccccc2C3=O)cc1 (stereo not given)

IC50 [15]: 14 nM
Structure (SMILES): Cc1ccc(Nc2c(F)cccc2Cl)c(Cc2nnn[nH]2)c1

IC50 [16]: > 50 µM
Structure (SMILES): Cc1ccc(-c2nn(Cc3nnc(-c4ccccc4[N+](=O)[O-])o3)c(=O)c3ccccc23)cc1C

IC50 [16]: 63.8 µM
Ratio IC50 (Ovis aries): 133
inhibition [17]: 3.92%
inhibition [18]: 76%
Structure (SMILES): Cc1cc(C)c2c(n1)nn1c(/C=C/c3ccc([N+](=O)[O-])cc3)c(C)[nH]c21
